Measurements taken from ChEMBL document CHEMBL4382229, “Benzofuran derivatives and their anti-tubercular, anti-bacterial activities” (Eur J Med Chem, 2019).
Converted amounts (≈) assume the structure as drawn.

What follows are compounds tested on Pseudomonas aeruginosa (assay: Antibacterial activity against Pseudomonas aeruginosa by broth dilution method). Details: not given.
Assay type: functional

Row | SMILES | MIC [µg/mL]
1 | Cc1ccc2occ(-c3cc4cc(Br)ccc4oc3=O)c2c1 | 6.25 to 100 (≈ 17.6 to 282 µM)
2 | Cc1ccc2c(-c3cc4ccccc4oc3=O)coc2c1 | 6.25 to 100 (≈ 22.6 to 362 µM)
3 | O=c1oc2ccc(Br)cc2cc1-c1coc2c1ccc1ccccc12 | 6.25 to 100 (≈ 16 to 256 µM)
4 | Cc1ccc2c(-c3cc4cc(Br)ccc4oc3=O)coc2c1 | 6.25 to 100 (≈ 17.6 to 282 µM)
5 | O=c1oc2ccccc2cc1-c1coc2ccc3ccccc3c12 | 6.25 to 100 (≈ 20 to 320 µM)
6 | COc1ccc2occ(-c3cc4cc(Br)ccc4oc3=O)c2c1 | 6.25 to 100 (≈ 16.8 to 269 µM)
7 | COc1ccc2occ(-c3cc4ccccc4oc3=O)c2c1 | 6.25 to 100 (≈ 21.4 to 342 µM)

What follows are compounds tested on Streptococcus pyogenes (assay: Antibacterial activity against Streptococcus pyogenes MTCC 442 assessed as zone of inhibition at 100 ug/ml by disc diffusion method). Details: read-out: IZ.
Assay type: functional

Row | SMILES | zone of inhibition at 100 µg/mL [mm]
8 | Cc1cc(NS(=O)(=O)c2ccccc2)c2oc(COC(=O)NCc3ccccc3)cc2c1 | 11 to 28

These compounds were tested on Bacillus subtilis (assay: Antibacterial activity against Bacillus subtilis MTCC 1134 after 24 hrs by broth dilution method). Details: MTCC 1134, 24 h.
Assay type: functional

Row | SMILES | MIC [µg/mL]
9 | Cc1ccc(-c2cc(-c3cc4ccccc4o3)nc(O)n2)s1 | 4.32 to 18.4 (≈ 14 to 59.8 µM)
10 | Nc1nc(-c2cc3ccccc3o2)cc(-c2cccs2)n1 | 4.32 to 18.4 (≈ 14.7 to 62.9 µM)
11 | Cc1ccc(-c2cc(-c3cc4ccccc4o3)nc(S)n2)s1 | 4.32 to 18.4 (≈ 13.3 to 56.9 µM)
12 | Oc1nc(-c2cc3cc(Br)ccc3o2)cc(-c2cccs2)n1 | 4.32 to 18.4 (≈ 11.6 to 49.4 µM)
13 | Sc1nc(-c2cc3ccccc3o2)cc(-c2cccs2)n1 | 4.32 to 18.4 (≈ 13.9 to 59.4 µM)

The compounds below were run on Escherichia coli (assay: Antibacterial activity against Escherichia coli MTCC 1559 after 24 hrs by broth dilution method). Details: MTCC 1559, 24 h.
Assay type: functional

Row | SMILES | MIC [µg/mL]
14 | Cc1ccc(-c2cc(-c3cc4ccccc4o3)nc(O)n2)s1 | 4.32 to 18.4 (≈ 14 to 59.8 µM)
15 | Nc1nc(-c2cc3ccccc3o2)cc(-c2cccs2)n1 | 4.32 to 18.4 (≈ 14.7 to 62.9 µM)
16 | Cc1ccc(-c2cc(-c3cc4ccccc4o3)nc(S)n2)s1 | 4.32 to 18.4 (≈ 13.3 to 56.9 µM)
17 | Oc1nc(-c2cc3cc(Br)ccc3o2)cc(-c2cccs2)n1 | 4.32 to 18.4 (≈ 11.6 to 49.4 µM)
18 | Sc1nc(-c2cc3ccccc3o2)cc(-c2cccs2)n1 | 4.32 to 18.4 (≈ 13.9 to 59.4 µM)

What follows are compounds tested on Staphylococcus aureus (assay: Antibacterial activity against Staphylococcus aureus MTCC 96 assessed as zone of inhibition at 100 ug/ml by disc diffusion method). Details: read-out: IZ.
Assay type: functional

Row | SMILES | zone of inhibition at 100 µg/mL [mm]
19 | Cc1cc(NS(=O)(=O)c2ccccc2)c2oc(COC(=O)NCc3ccccc3)cc2c1 | 11 to 28

The compounds below were run on Escherichia coli (assay: Antibacterial activity against Escherichia coli MTCC 443 assessed as zone of inhibition at 100 ug/ml by disc diffusion method). Details: read-out: IZ.
Assay type: functional

Row | SMILES | zone of inhibition at 100 µg/mL [mm]
20 | Cc1cc(NS(=O)(=O)c2ccccc2)c2oc(COC(=O)NCc3ccccc3)cc2c1 | 11 to 28

What follows are compounds tested on Pseudomonas aeruginosa (assay: Antibacterial activity against Pseudomonas aeruginosa MTCC 1034 after 24 hrs by broth dilution method). Details: MTCC 1034, 24 h.
Assay type: functional

Row | SMILES | MIC [µg/mL]
21 | Cc1ccc(-c2cc(-c3cc4ccccc4o3)nc(O)n2)s1 | 4.32 to 18.4 (≈ 14 to 59.8 µM)
22 | Nc1nc(-c2cc3ccccc3o2)cc(-c2cccs2)n1 | 4.32 to 18.4 (≈ 14.7 to 62.9 µM)
23 | Cc1ccc(-c2cc(-c3cc4ccccc4o3)nc(S)n2)s1 | 4.32 to 18.4 (≈ 13.3 to 56.9 µM)
24 | Oc1nc(-c2cc3cc(Br)ccc3o2)cc(-c2cccs2)n1 | 4.32 to 18.4 (≈ 11.6 to 49.4 µM)
25 | Sc1nc(-c2cc3ccccc3o2)cc(-c2cccs2)n1 | 4.32 to 18.4 (≈ 13.9 to 59.4 µM)

The compounds below were run on Escherichia coli (assay: Antibacterial activity against Escherichia coli by broth dilution method). Details: not given.
Assay type: functional

Row | SMILES | MIC [µg/mL]
26 | Cc1ccc2occ(-c3cc4cc(Br)ccc4oc3=O)c2c1 | 6.25 to 100 (≈ 17.6 to 282 µM)
27 | Cc1ccc2c(-c3cc4ccccc4oc3=O)coc2c1 | 6.25 to 100 (≈ 22.6 to 362 µM)
28 | O=c1oc2ccc(Br)cc2cc1-c1coc2c1ccc1ccccc12 | 6.25 to 100 (≈ 16 to 256 µM)
29 | Cc1ccc2c(-c3cc4cc(Br)ccc4oc3=O)coc2c1 | 6.25 to 100 (≈ 17.6 to 282 µM)
30 | O=c1oc2ccccc2cc1-c1coc2ccc3ccccc3c12 | 6.25 to 100 (≈ 20 to 320 µM)
31 | COc1ccc2occ(-c3cc4cc(Br)ccc4oc3=O)c2c1 | 6.25 to 100 (≈ 16.8 to 269 µM)
32 | COc1ccc2occ(-c3cc4ccccc4oc3=O)c2c1 | 6.25 to 100 (≈ 21.4 to 342 µM)

Each compound was assayed on Pseudomonas aeruginosa (assay: Antibacterial activity against Pseudomonas aeruginosa MTCC 424 assessed as zone of inhibition at 100 ug/ml by disc diffusion method). Details: read-out: IZ.
Assay type: functional

Row | SMILES | zone of inhibition at 100 µg/mL [mm]
33 | Cc1cc(NS(=O)(=O)c2ccccc2)c2oc(COC(=O)NCc3ccccc3)cc2c1 | 11 to 28
